Laboratory results reported in patent publication US20160367553A1, “Methods and Compositions for Treating Cancers having Acquired Resitance to prior Chemotherapeutic and Targeted Drugs Using Carboxyamidotriazole Orotate” (priority 2015, published 2016).

Columns and labels:
renal cell carcinoma = assay: Phase I clinical study of CTO, patient with refractory renal cell carcinoma; assay type: in vivo, human; conditions: 75 mg/m2/day
refractory NSCLC = assay: Phase I clinical study of CTO, patients with refractory NSCLC; assay type: in vivo, human; conditions: NSCLC patient; for tumor response measured after two cycles: docetaxel, erlotinib, 28 days
[1] = test system: metastatic colorectal cancer; assay: Phase I clinical study of CTO, patient with refractory metastatic colorectal cancer; assay type: in vivo, human; conditions: 285 mg/m2/day
[2] = test system: refractory head and neck tumor; assay: Phase I clinical study of CTO, patient with refractory head and neck tumor; assay type: in vivo, human; conditions: tumor PBKCA, E545K, 285 mg/m2/day
Description: The effectiveness of the CTO treatment is determined by controlled clinical studies. The cancers are evaluated by measuring tumors no more than 14 days before the start of the treatment, and evaluated after 2 cycles of 28 days after day 1 of the administration of the first dose of CTO. The tumor size is measured by the most accurate measurement such as PET-CT, CI scan, MRI scan, x-ray, ultrasound, etc. The criteria for evaluating response are described in the revised Response Evaluation Criteria in Solid Tumors Guidelines, Eisenhauer et al, 1990 and by the Macdonald Criteria for response to high grade gliomas, Macdonald. et al, 1990.
“Progressive disease” is defined as an increase of 25% or greater in the product of the largest perpendicular diameters for at least one bidimensionally measurable tumor, or an increase of 25% or greater at least one undimensionally measurable tumor or appearance of a new lesion or clinical deterioration. […]
“Partial response” means a) for bidimensionally measurable tumors, a decrease of at least 50% in the sum of the products of tire largest perpendicular diameters of all measurable tumors as determined by two observations not less than four weeks apart, b) for undimensionally measurable tumors, a decrease by at least 50% in the sum of the largest diameters of all tumors as determined by two observation not less than four weeks apart. […]

[3] = test system: Akt and Erk1/2 phosphorylation; conditions: exosomes-stimulated HUVEC cell; cited from earlier work
[4] = test system: imatinib mesylate-resistant chronic myeloid leukemia cells; conditions: cited from earlier work
VEGF = conditions: cited from earlier work

SMILES | stable disease and partial response registered for (renal cell carcinoma; CTO continued) | tumor response measured after two cycles (renal cell carcinoma; prior IL-2, pegylated IFN, sorafenib, sunitnib, erlotinib, torisel, 28 days, two cycles) | stable disease and partial response registered for (refractory NSCLC; tumor EGFR, ELREATS 746-752 V (exon 19), 219 mg/m2/day) | tumor response measured after two cycles (refractory NSCLC; tumor EGFR, ELREATS 746-752 V (exon 19), prior carboplatin, paclitaxel, cisplatin, gemcitamide, premetrexed, 219 mg/m2/day) | stable disease and partial response registered for (refractory NSCLC; tumor PI3KCA, E545K, 219mg/m2/day) | tumor response measured after two cycles (refractory NSCLC; tumor PI3KCA, E545K, prior paclitaxel, carboplatin, 219mg/m2/day) | tumor response measured after two cycles ([1]; tumor BRAF V660E, prior leucovorin, fluorouracil, oxaliplatin, bevacizumab, cetuximab, capecitabine, panitumumab, irinotecan, 28 days, two cycles) | stable disease and partial response registered for ([1]; tumor) | stable disease and partial response registered for [2] | tumor response measured after two cycles ([2]; prior cetuximab, cisplatin, taxotere, 28 days, two cycles) | effect on Akt and Erk1/2 phosphorylation [3] | apoptosis by down-regulating bcr-abl [4] | effect on VEGF expression and secretion (VEGF)
NC(=O)c1nnn(Cc2cc(Cl)c(C(=O)c3ccc(Cl)cc3)c(Cl)c2)c1N.O=C(O)c1cc(=O)[nH]c(=O)[nH]1 [CTO, carboxyamidotriazole orotate] | over twelve | responded by not progressing | more than twelve | responded by not progressing | more than twelve | responded by not progressing | responded to CTO by not progressing | six | more than six | responded by not progressing | inhibits Akt and Erk1/2 phosphorylation | – | –
NC(=O)c1nnn(Cc2cc(Cl)c(C(=O)c3ccc(Cl)cc3)c(Cl)c2)c1N [CAI, Carboxyamidotriazole] | – | – | – | – | – | – | – | – | – | – | – | induces apoptosis | inhibits VEGF expression, and secretion
